Source: PMC12154426, “TPP-Based Nanovesicles Kill MDR Neuroblastoma Cells and Induce Moderate ROS Increase, While Exerting Low Toxicity Towards Primary Cell Cultures: An In Vitro Study” (International Journal of Molecular Sciences, 2025)

Test system: cortical neurons
Experiment: MTT cytotoxicity assay on cortical neuron primary cell cultures
Assay type: cell-based, Sprague Dawley rat
Details: for IC50: 0.12–11.73 µM
Source text: Similarly to the assessment of haemolytic toxicity, the evaluation of cytotoxicity towards mammalian cells is another pivotal step to afford in the early stage of drug development, before undertaking other costly and time-consuming in vivo experiments. […] The cytotoxicity of quaternary phosphonium salts (QPSs) depends mainly on their physicochemical characteristics, including the number of carbon atoms of alkyl chains, the presence of aromatic ring(s) on which the P^+ cationic charge can delocalize, the type of counter anions, the possible colloidal properties, and the probable capability to form nano aggregates. The specific types of cells exposed to QPSs can further influence their cytotoxicity. In this regard, the constituents of membranes of cancer cells are different from those of mammalian cells. This makes them more susceptible to the disruptive action of cationic compounds, thus making QPSs’ possible cytotoxicity towards tumour cells higher than towards normal ones. Anyway, a certain cytotoxicity could manifest also in normal cells and quantifying it is mandatory. Based on these considerations, although NB is a neuroendocrine tumour which derives from neural crest cells, we investigated the BPPB toxic effects on primary cell cultures, namely spinal cord astrocytes and cortical neurons. Astrocyte primary cultures have emerged as an important tool for understanding the responses of normal cells under both physiological and pathological conditions. On the other hand, primary neuronal cell cultures are best suited for drug discovery and drug development. Primary cell cultures freshly prepared from animals reproduce physiological conditions astonishingly like the in vivo situation. As for our knowledge, it is the first time that the cytotoxicity of a bola amphiphilic compound is assessed on primary cultures of astrocytes and neurons. More generically, the existent studies on the cytotoxicity of synthetic QPSs, or of a generic exogenous synthetic cationic organic compound or polymer on astrocytes and neurons primary cell cultures, are limited. As examples, upon a rapid survey, we have found a study on the mechanism by which amine-modified cationic polystyrene nanoparticles induced cell death in a human brain astrocytoma cell line, but not in primary astrocytes. A study on the mechanism by which endogenous eosinophil cationic protein/RNase 3 induced cell death in primary astrocytes was found, but exogenous synthetic cationic compounds were not considered. Concerning primary neurons, the cytotoxicity of both a commercial (LA2000) and a newly prepared cationic lipid (Arg (TFA^−)) vs. primary neurons was assessed by Aoshima et al.. The cytotoxicity of a library of 80 compounds, among which only 2/3 molecules were cationic salts, was evaluated in human-induced pluripotent stem cell (iPSC)-derived neural stem cells, neurons, and astrocytes by Pei et al.. Vidal et al. assessed the neurotoxicity of a cationic fourth generation (G4) amine dendrimer (G4-NH2) towards primary neuron cell cultures. […] Cell viability in neurons and astrocytes, treated with increasing concentrations of BPPB for 24, 48, and 72 h, was assessed using the MTT essay, which is a method endowed with simplicity, convenience, quantitative and high throughput, as well as reproducibility. MTT is a well-established method for assessing cell viability, and its reliability is supported by standardized protocols in many areas of research.
Cortical neurons were prepared from the cortex of E16-E17 Sprague Dawley rat embryos, as previously described. The cortex was removed under binocular dissection (Nikon SMZ-2T, Tokyo, Japan) in a physiologic medium composed of 120 mM NaCl, 5 mM KCl, 25 mM HEPES, and 9 mM glucose (HIB, pH 7.4) at 4 °C. […]

c1ccc([P+](CCCCCCCCCCCC[P+](c2ccccc2)(c2ccccc2)c2ccccc2)(c2ccccc2)c2ccccc2)cc1 [BPPB, 1,1-(1,12-dodecanediyl)-bis-[1,1,1]-triphenyl phosphonium di-bromide]
cell viability (0.12 µM, 24 h): 89.49%
cell viability (0.12 µM, 48 h): 96.77%
cell viability (0.12 µM, 72 h): 95.90%
cell viability (0.29 µM, 72 h): 71.80%
cell viability (1.80 µM, 48 h): 57.15%
cell viability (11.73 µM (10.0 µg/mL), 24 h): 14.80%
cell viability (11.73 µM (10.0 µg/mL), 48 h): 20.03%
cell viability (11.73 µM (10.0 µg/mL), 72 h): 10.63%
IC50 (24 h exposure): 1560 ± 278 nM
IC50 (48 h exposure): 2210 ± 336 nM
IC50 (72 h exposure): 763 ± 127 nM
SI 24 h (Cortical neurons vs. HTLA 230, 24 h): 1.69
SI 48 h (Cortical neurons vs. HTLA 230, 48 h): 4.78
SI 72 h (Cortical neurons vs. HTLA 230, 72 h): 1.96
SI 24 h (Cortical neurons vs. HTLA ER, 24 h): 1.26
SI 48 h (Cortical neurons vs. HTLA ER, 48 h): 1.63
SI 72 h (Cortical neurons vs. HTLA ER, 72 h): 0.64
SI values with respect to primary cortical neurons (HTLA 230 and HTLA ER, all exposure timings except HTLA ER 72 h): 1.26–4.78
